This is an account of results in PMC10424242, “Macrocyclic Peptidomimetic Plasmepsin X Inhibitors with Potent In Vitro and In Vivo Antimalarial Activity” (Journal of Medicinal Chemistry, 2023).

Data set [1] relates to P. falciparum 3D7 parasites. The experiment in a line: Microscopy of synchronized P. falciparum cultures treated from ring stage (development and egress). It is filed as cell-based. The settings on record: 20 nM.
Protocol: Asexual blood-stage forms of P. falciparum strains 3D7 and Dd2 were maintained at 37 °C in an atmosphere of 1% O2, 5% CO2, and 94% N2 in human RBCs in RPMI 1640 medium containing AlbuMAX II (Thermo Fisher Scientific) and supplemented with 2 mM L-glutamine. The synchronization of parasite cultures was as described previously.[39] Briefly, this involved isolating mature schizont forms by centrifugation over cushions of 70% (v/v) isotonic Percoll (GE Healthcare, Life Sciences) and then allowing the parasites to undergo rupture in the presence of fresh RBCs for 2 h under gentle shaking conditions (100 rpm). Residual schizonts were then removed through a second Percoll separation, followed by treatment with 5% (w/v) sorbitol to finally obtain a highly synchronized preparation of newly invaded ring-stage parasites.
Growth stage progression and parasite morphology were also monitored by microscopic examination at selected time points using Giemsa-stained thin blood films.
A further data set concerns P. falciparum schizonts. Kind of data set: Washout assay, schizont rupture and new ring formation. It is filed as cell-based. To be noted: 20 nM ∼44 h, […] with added RBCs. As for the experimental part: (§1) The schizont cultures lacking added RBCs were supplemented with compound C2, which blocks the discharge of exonemes, the parasite secretory organelles in which PMX and SUB1 are stored before egress. The schizonts without added RBCs were sampled for Western blot analysis, while the schizont cultures containing RBCs were examined by microscopy and flow cytometry after a further 4 h in culture to quantify schizont rupture and new ring formation.
(§2) Synchronous parasite cultures were cultured from ring to schizont stage (∼44 h) in the presence of DMSO alone (0.04% v/v; control) or macrocycle compounds (20 nM final concentration). Schizonts were isolated by Percoll enrichment (still in the presence of the test compound), then either immediately frozen or further incubated in the absence of the drug but in the presence of C2 (1 μM) for 1 h at 37°C in the absence of added RBCs or for 3.5 h in the presence of added RBCs. The schizonts without added RBCs were then frozen too, and all schizont samples were then thawed into CHAPS–urea extraction buffer, subjected to sodium dodecyl sulfate-polyacrylamide gel electrophoresis (SDS-PAGE), and analyzed by Western blot, probing with antibodies against SUB1 or RAP1. For schizonts cultured in the presence of added RBCs, ring formation was assessed in two ways: cultures were examined microscopically by Giemsa stain of thin films and were also fixed with glutaraldehyde and processed for quantification of ring formation by flow cytometry as described above.

Data set [2] has as its system SUB1 p54 to p47 conversion (PMX activity). Kind of data set: Washout assay, SUB1 maturation by Western blot. It is filed as cell-based, P. falciparum. The settings on record: 20 nM ∼44 h, C2 1 μM for 1 h. Here is the method:
as §1, §2

Data set [3] is described as follows: Liver microsomal metabolic stability. It is filed as in vitro ADME, mouse. To be noted: pooled liver microsomes, pH 7.4, mouse liver microsomes, 5 μM; for microsomal CLint at 1 h, 5 μM: read-out: microsomal stability CL(int). Here is the method:
Microsomal stability assays are performed as described elsewhere.[41] Test compounds and pooled mouse liver microsomes are incubated in potassium phosphate buffer in the presence of the cofactor NADPH at 37 °C. Reaction mixtures (700 μL) contain a final concentration of 5 μM test compound, 0.05% DMSO, 0.5 mg/mL microsomes, and ∼0.7–0.9 mM NADPH in 100 mM potassium phosphate buffer at pH 7.4. Reactions are terminated by the addition of 100 μL of the reaction mixture to 900 μL of acetonitrile after 0, 5, 15, 30, 45, and 60 min of incubation. Samples were centrifuged, and the resultant supernatant was analyzed by ultra-performance liquid chromatography–tandem mass spectrometry (UPLC-MS/MS). The amount of remaining compound is calculated and compared to the initial amount of test compound (zero time point). Verapamil is used as a positive control, and samples prepared without cofactor NADPH are used as a negative control (0 and 60 min). The in vitro metabolic stability parameters (half-life value (t1/2) and intrinsic clearance value (Clint)) are calculated from the slope of the Ln of concentration remaining vs the time curve.
For orientation: Liver microsomes are vesicles of endoplasmic reticulum, rich in cytochrome P450 enzymes.

Data set [4] deals with maturation of RAP1, substrate of PMIX. Kind of data set: Western blot of RAP1 maturation in treated schizonts. It is filed as cell-based, P. falciparum. The settings on record: 20 nM, 44 h.
From the text: Figure 4 Macrocycle PMX inhibitors have no effect on intraerythrocytic parasite maturation but prevent egress and maturation of SUB1. […] Scale bar, 20 μm. (B) Simplified schematic of proteolytic maturation of the egress effector SUB1. Conversion of the precursor form to p54 is through autocatalytic removal[32] of the prodomain region (PD), whereas conversion of p54 to p47 is mediated by PMX.[15],[16],[33] (C) Left, Western blot analysis of P. falciparum 3D7 schizonts allowed to mature in the presence of the indicated macrocycle compounds (20 nM), showing defective SUB1 maturation in parasites treated with the indicated macrocycle compounds. Right, Western blot of the same extracts probed with a monoclonal antibody (mAb) specific to the rhoptry protein RAP1, which is a substrate for cleavage by the related P. falciparum protease PMIX. The compounds had no discernible effect on the maturation of RAP1. The results shown are typical of 3 independent experiments.
as §2
For orientation: Immunoblotting shows a protein as a band on a membrane.

The next data set deals with BACE1 (Homo sapiens, UniProt P56817). Kind of data set: FRET-based BACE1 inhibition assay (selectivity counter screen). It is filed as biochemical. Here is the method: (§3) A fluorescence resonance energy transfer (FRET)-based assay was performed to assess the ability of the compounds to inhibit PMIV, CatD, and BACE1. Serial dilutions of test compounds were dispensed in a white 96-well plate. […] The mixture was incubated for 20 min at 37 °C. […] IC50 values were calculated with GraphPad Prism 8.0 using the nonlinear regression, variable slope (four parameters). Compounds were tested in triplicate.
On the technique in general: Counterscreens check selectivity or assay interference.

Another data set addresses cathepsin D (CatD) (Homo sapiens, UniProt P07339). The experiment in a line: FRET-based CatD inhibition assay (selectivity counter screen). It is filed as biochemical. Here is the method: as §3
The target of a further data set is PMIV (Plasmodium falciparum, UniProt Q8IM16). Kind of data set: FRET-based PMIV inhibition assay. It is filed as biochemical, P. falciparum. As for the experimental part: as §3
Data set [5] is described as follows: Plasma protein binding (rapid equilibrium dialysis). To be noted: pH 7.4, mouse plasma, 2 h at 37 °C. It is filed as in vitro ADME. Here is the method:
Plasma protein binding was performed with rapid equilibrium dialysis (RED) device inserts containing a dialysis membrane with a molecular weight cut-off of 8000 Daltons. Inserts were placed in the single-use RED plate without prior preparation.
The test compound at a concentration of 5 μM was added to mouse plasma and dialyzed against phosphate-buffered saline (PBS, pH 7.4) for 2 h at 37 °C. Propranolol hydrochloride was used as a positive control (high PPB), and fluconazole was used as negative control (low PPB). After dialysis, the drug concentration in the buffer and plasma compartments was quantified by liquid chromatography and tandem mass spectrometry (LC-MS/MS) analysis.

The test system of data set [6] is maturation of the PMX substrate SUB1 (p54 to p47). Kind of data set: Western blot of SUB1 maturation in treated schizonts. It is filed as cell-based, P. falciparum. To be noted: 20 nM, 44 h. As for the experimental part:
This phenotype is characteristic of the inhibition of PMX.
as §2

Data set [7] concerns the target recombinant P. falciparum PMX (Plasmodium falciparum, UniProt Q8IAS0). Kind of data set: Recombinant P. falciparum PMX inhibition assay (fluorogenic substrate Rh2N). It is filed as biochemical. Here is the method: The fluorescence of this peptide is quenched by the spatial proximity of the DABCYL/EDANS groups in the uncleaved peptide and is increased upon cleavage at the internal F–I bond. […] Control wells contained no inhibitor, and the plate was blanked against the substrate only in DB. […] All experiments were performed in duplicate.

Setting [8] is: recombinant PMX, read-out: PMX, nM (IC50).

Read-outs that look alike come from different tables or passages of the source.

PMIV, sequence (Q8IM16 122-449): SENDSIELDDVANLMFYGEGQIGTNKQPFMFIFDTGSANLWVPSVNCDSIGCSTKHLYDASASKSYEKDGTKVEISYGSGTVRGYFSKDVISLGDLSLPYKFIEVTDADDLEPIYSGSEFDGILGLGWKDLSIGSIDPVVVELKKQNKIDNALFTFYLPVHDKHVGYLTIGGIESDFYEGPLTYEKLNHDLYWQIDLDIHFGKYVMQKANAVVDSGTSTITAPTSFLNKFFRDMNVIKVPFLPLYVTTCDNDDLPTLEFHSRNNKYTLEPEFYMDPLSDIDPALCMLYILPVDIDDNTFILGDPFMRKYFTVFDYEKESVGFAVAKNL
recombinant P. falciparum PMX, sequence (Q8IAS0 222-573): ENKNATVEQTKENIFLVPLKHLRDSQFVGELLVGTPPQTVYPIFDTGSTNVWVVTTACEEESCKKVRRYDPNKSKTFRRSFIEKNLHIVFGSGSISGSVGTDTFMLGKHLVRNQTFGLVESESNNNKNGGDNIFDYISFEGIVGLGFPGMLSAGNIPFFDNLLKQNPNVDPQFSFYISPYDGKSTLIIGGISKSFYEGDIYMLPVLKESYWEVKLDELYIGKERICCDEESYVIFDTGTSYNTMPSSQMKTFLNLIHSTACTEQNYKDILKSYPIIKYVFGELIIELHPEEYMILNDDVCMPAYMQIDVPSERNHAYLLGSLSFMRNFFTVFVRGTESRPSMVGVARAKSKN
cathepsin D (CatD), sequence (P07339 65-412): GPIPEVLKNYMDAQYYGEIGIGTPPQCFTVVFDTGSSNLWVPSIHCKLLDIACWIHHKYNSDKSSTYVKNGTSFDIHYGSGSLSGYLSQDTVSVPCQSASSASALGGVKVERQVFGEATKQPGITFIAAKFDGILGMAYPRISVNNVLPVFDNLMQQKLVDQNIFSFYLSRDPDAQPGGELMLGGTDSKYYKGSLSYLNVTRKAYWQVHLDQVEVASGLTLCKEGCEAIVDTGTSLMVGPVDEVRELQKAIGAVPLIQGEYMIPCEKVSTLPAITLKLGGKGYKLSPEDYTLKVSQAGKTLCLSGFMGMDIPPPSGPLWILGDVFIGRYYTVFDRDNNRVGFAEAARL
BACE1, sequence (P56817 46-501): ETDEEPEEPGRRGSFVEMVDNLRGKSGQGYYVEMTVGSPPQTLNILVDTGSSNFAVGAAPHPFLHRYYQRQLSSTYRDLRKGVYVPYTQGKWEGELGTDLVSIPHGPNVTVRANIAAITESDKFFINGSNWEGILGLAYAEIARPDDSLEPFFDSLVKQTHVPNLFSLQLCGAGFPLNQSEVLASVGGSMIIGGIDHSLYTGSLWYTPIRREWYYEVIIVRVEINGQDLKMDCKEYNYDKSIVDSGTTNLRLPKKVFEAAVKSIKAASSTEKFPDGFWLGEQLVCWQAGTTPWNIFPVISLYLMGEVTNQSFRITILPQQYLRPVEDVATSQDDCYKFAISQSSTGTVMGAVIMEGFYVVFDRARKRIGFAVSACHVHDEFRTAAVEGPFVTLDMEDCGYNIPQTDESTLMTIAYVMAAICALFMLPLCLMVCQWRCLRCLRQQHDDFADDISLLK

As to `CCCN1CCCCOc2cccc(c2)C[C@@H]([C@H](O)CNC(C)(C)c2cccc(OC)c2)NC(=O)c2cccc(c2)C1=O` [7a, (S)-4-((R)-1-Hydroxy-2-((2-(3-methoxyphenyl)propan-2-yl)amino)ethyl)-12-propyl-7-oxa-3,12-diaza-1,6(1,3)-dibenzenacyclotridecaphane-2,13-dione], the “intraerythrocytic development of ring-stage parasites to schizont stage” value in data set [1] (44 h) is recorded as “Development of ring-stage parasites to the multinucleated schizont stage occurred similarly in all cultures”. Moreover, the “schizont rupture (egress) and appearance of new rings” value in [1] (44 h and extended incubation) was “schizont rupture and appearance of new rings did not occur”. Further, the “new ring formation after washout” value with P. falciparum schizonts was “allowed an efficient generation of new rings”. For the same molecule, the “SUB1 p54 to p47 conversion after washout” value in data set [2] was “efficient conversion of the accumulated SUB1 p54 intermediate to the p47 form”. The half-life at 1 h, 5 μM in [3] stood at 8.67 min. Moreover, in data set [3], the microsomal CLint at 1 h, 5 μM came out at 160 µL/min/mg. Moreover, the “maturation of RAP (PMIX substrate)” value in [4] is “do not affect PMIX activity at these concentrations”. Further, the IC50 against BACE1 was determined as 380 ± 20 nM; against cathepsin D (CatD) it was 270 ± 20 nM; on PMIV (read-out: PMIV, nM (IC50)) it was 60 ± 3 nM; in data set [7] (setting [8]) it was 4.1 ± 0.3 nM. The molecule further had a fraction unbound at 2 h, 5 µM in data set [5] of 0.029. In addition, in [6], the “maturation of SUB1 (p54 to p47)” value is given as “clear defect in maturation of the PMX substrate SUB1”.
As to `CCCN1CCCCc2cccc(c2)C[C@@H]([C@H](O)CNC(C)(C)c2cccc(OC)c2)NC(=O)c2cccc(c2)C1=O` [7j, (S)-4-((R)-1-Hydroxy-2-((2-(3-methoxyphenyl)propan-2-yl)amino)ethyl)-11-propyl-3,11-diaza-1,6(1,3)-dibenzenacyclododecaphane-2,12-dione], the “new ring formation after washout” value with P. falciparum schizonts is given as “allowed an efficient generation of new rings”. The “SUB1 p54 to p47 conversion after washout” value in data set [2] is “efficient conversion of the accumulated SUB1 p54 intermediate to the p47 form”. In data set [3], this molecule gave a half-life at 1 h, 5 μM of 14.4 min. Also, the microsomal CLint at 1 h, 5 μM in [3] worked out at 96.4 µL/min/mg. Moreover, the “maturation of RAP (PMIX substrate)” value in data set [4] is reported as “do not affect PMIX activity at these concentrations”. Moreover, the IC50 came out at 3020 ± 150 nM against BACE1; 1370 ± 70 nM at cathepsin D (CatD); 74 ± 4 nM on PMIV (Table 3, read-out: PMIV, nM (as listed in Table 3)); 74 ± 4 nM on PMIV (read-out: PMIV, nM (IC50)); 3.8 ± 0.69 nM in [7] (Table 3, read-out: PMX, nM (as listed in Table 3)); 3.8 ± 0.69 nM in data set [7] (setting [8]). Besides, the fraction unbound at 2 h, 5 µM in data set [5] is 0.0067. For the same molecule, in data set [6], the “maturation of SUB1 (p54 to p47)” value is on record as “clear defect in maturation of the PMX substrate SUB1”.

Broadly, the half-life is how long it takes for the measured level to halve. A word on the fraction unbound: it is free concentration divided by total concentration. A high value points to much free substance.
